Assay results taken from the supplement of paper PMC10307832.

Columns and labels:
Assay in all cases: relative viability (nuclei count vs DMSO), 5 days (fraction); higher = more cells survive
XAV939 = compound: Oc1nc(-c2ccc(C(F)(F)F)cc2)nc2c1CSCC2 [XAV939]
Method in brief: (§1)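 On vehicle-anchored 1536-well plates, lung cancer cell lines held overnight at 37 °C were pinned with five library-drug doses (not always all listed) spaced by √10. With no medium change over 5 days, they were then fixed, permeabilised and Hoechst-stained in one step and imaged at 4×. MetaXpress counted nuclei, and viability is the median across plates of treated-well over vehicle-well nuclei. Acceptance needed control CV below 25% and at least one doubling.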

Navitoclax = compound: CC1(C)CCC(c2ccc(Cl)cc2)=C(CN2CCN(c3ccc(C(=O)NS(=O)(=O)c4ccc(N[C@H](CCN5CCOCC5)CSc5ccccc5)c(S(=O)(=O)C(F)(F)F)c4)cc3)CC2)C1 [Navitoclax]
Method in brief: as §1

C-75 = compound: CCCCCCCC[C@H]1[C@@H](C(=C)C(=O)O1)C(=O)O [C-75]
Method in brief: as §1

[1] = compound: O=C(O)c1ccc(-c2c[nH]c3ncc(-c4ccccc4)cc23)cc1C1CCCC1
Method in brief: as §1

AZD7762 = compound: NC(=O)Nc1cc(-c2cccc(F)c2)sc1C(=O)N[C@H]1CCCNC1 [AZD7762]
Method in brief: as §1

NCI-H1993
relative viability (XAV939; 0.08 µM): 0.841
relative viability (XAV939; 0.253 µM): 0.693
relative viability (XAV939; 0.8 µM): 0.782
relative viability (XAV939; 2.53 µM): 0.827
relative viability (Navitoclax; 0.005 µM): 0.925
relative viability (Navitoclax; 0.01581 µM): 1.23
relative viability (Navitoclax; 0.05 µM): 0.913
relative viability (Navitoclax; 0.1581 µM): 0.947
relative viability (Navitoclax; 0.5 µM): 0.949
relative viability (Navitoclax; 0.5 µM, anchor plate): 1.04
relative viability (C-75; 0.08 µM): 1.09
relative viability (C-75; 0.253 µM): 1.07
relative viability (C-75; 0.8 µM): 0.888
relative viability (C-75; 2.53 µM): 0.855
relative viability (C-75; 8 µM): 0.903
relative viability ([1]; 0.04 µM): 0.979
relative viability ([1]; 0.1265 µM): 1.02
relative viability ([1]; 0.4 µM): 0.946
relative viability ([1]; 1.265 µM): 0.877
relative viability (AZD7762; 0.01 µM): 0.96
relative viability (AZD7762; 0.03162 µM): 0.984
relative viability (AZD7762; 0.1 µM): 0.957
relative viability (AZD7762; 0.2 µM, anchor plate): 0.828
relative viability (AZD7762; 0.3162 µM): 1.11
relative viability (AZD7762; 1 µM): 0.819

NCI-H2009
relative viability (XAV939; 0.08 µM): 1.12
relative viability (XAV939; 0.253 µM): 0.996
relative viability (XAV939; 0.8 µM): 0.924
relative viability (XAV939; 2.53 µM): 0.899
relative viability (Navitoclax; 0.005 µM): 0.964
relative viability (Navitoclax; 0.01581 µM): 1.14
relative viability (Navitoclax; 0.05 µM): 1.02
relative viability (Navitoclax; 0.1581 µM): 1.04
relative viability (Navitoclax; 0.5 µM): 1.04
relative viability (Navitoclax; 0.5 µM, anchor plate): 1.16
relative viability (C-75; 0.08 µM): 0.999
relative viability (C-75; 0.253 µM): 0.991
relative viability (C-75; 0.8 µM): 0.911
relative viability (C-75; 2.53 µM): 0.81
relative viability (C-75; 8 µM): 0.905
relative viability ([1]; 0.04 µM): 1.01
relative viability ([1]; 0.1265 µM): 1.01
relative viability ([1]; 0.4 µM): 0.963
relative viability ([1]; 1.265 µM): 0.762
relative viability (AZD7762; 0.01 µM): 1.07
relative viability (AZD7762; 0.03162 µM): 0.994
relative viability (AZD7762; 0.1 µM): 1.1
relative viability (AZD7762; 0.3162 µM): 1
relative viability (AZD7762; 1 µM): 0.834

NCI-H2023
relative viability (XAV939; 0.08 µM): 1.02
relative viability (XAV939; 0.253 µM): 0.827
relative viability (XAV939; 0.8 µM): 0.817
relative viability (XAV939; 2.53 µM): 0.755
relative viability (Navitoclax; 0.005 µM): 0.919
relative viability (Navitoclax; 0.01581 µM): 1.04
relative viability (Navitoclax; 0.05 µM): 0.958
relative viability (Navitoclax; 0.1581 µM): 0.97
relative viability (Navitoclax; 0.5 µM): 0.909
relative viability (Navitoclax; 0.5 µM, anchor plate): 0.994
relative viability (C-75; 0.08 µM): 1
relative viability (C-75; 0.253 µM): 1.13
relative viability (C-75; 0.8 µM): 0.864
relative viability (C-75; 2.53 µM): 0.535
relative viability (C-75; 8 µM): 0.852
relative viability ([1]; 0.04 µM): 1.07
relative viability ([1]; 0.1265 µM): 1.06
relative viability ([1]; 0.4 µM): 0.994
relative viability ([1]; 1.265 µM): 0.75
relative viability (AZD7762; 0.01 µM): 0.965
relative viability (AZD7762; 0.03162 µM): 0.841
relative viability (AZD7762; 0.1 µM): 0.491
relative viability (AZD7762; 0.3162 µM): 0.262
relative viability (AZD7762; 1 µM): 0.132

NCI-H2085
relative viability (XAV939; 0.08 µM): 1.05
relative viability (XAV939; 0.253 µM): 0.893
relative viability (XAV939; 0.8 µM): 0.902
relative viability (XAV939; 2.53 µM): 0.891
relative viability (Navitoclax; 0.005 µM): 1.01
relative viability (Navitoclax; 0.01581 µM): 1.14
relative viability (Navitoclax; 0.05 µM): 0.93
relative viability (Navitoclax; 0.1581 µM): 1.01
relative viability (Navitoclax; 0.5 µM): 1.05
relative viability (Navitoclax; 0.5 µM, anchor plate): 1.12
relative viability (C-75; 0.08 µM): 1.04
relative viability (C-75; 0.253 µM): 0.974
relative viability (C-75; 0.8 µM): 0.988
relative viability (C-75; 2.53 µM): 0.866
relative viability (C-75; 8 µM): 0.975
relative viability ([1]; 0.04 µM): 0.932
relative viability ([1]; 0.1265 µM): 1.04
relative viability ([1]; 0.4 µM): 0.956
relative viability ([1]; 1.265 µM): 0.933
relative viability (AZD7762; 0.01 µM): 1.03
relative viability (AZD7762; 0.03162 µM): 0.992
relative viability (AZD7762; 0.1 µM): 1.08
relative viability (AZD7762; 0.2 µM, anchor plate): 0.973
relative viability (AZD7762; 0.3162 µM): 1.05
relative viability (AZD7762; 1 µM): 0.864

NCI-H2087
relative viability (XAV939; 0.08 µM): 1.32
relative viability (XAV939; 0.253 µM): 0.781
relative viability (XAV939; 0.8 µM): 1.07
relative viability (XAV939; 2.53 µM): 0.849
relative viability (Navitoclax; 0.005 µM): 1.01
relative viability (Navitoclax; 0.01581 µM): 1.16
relative viability (Navitoclax; 0.1581 µM): 1.01
relative viability (Navitoclax; 0.5 µM): 1.09
relative viability (Navitoclax; 0.5 µM, anchor plate): 0.952
relative viability (C-75; 0.08 µM): 1.06
relative viability (C-75; 0.253 µM): 0.963
relative viability (C-75; 0.8 µM): 0.941
relative viability (C-75; 2.53 µM): 0.915
relative viability (C-75; 8 µM): 0.924
relative viability ([1]; 0.04 µM): 1.12
relative viability ([1]; 0.1265 µM): 1.14
relative viability ([1]; 0.4 µM): 1.04
relative viability ([1]; 1.265 µM): 0.794
relative viability (AZD7762; 0.01 µM): 1.02
relative viability (AZD7762; 0.03162 µM): 1.08
relative viability (AZD7762; 0.1 µM): 1.26
relative viability (AZD7762; 0.2 µM, anchor plate): 1.24
relative viability (AZD7762; 0.3162 µM): 1.23
relative viability (AZD7762; 1 µM): 1.24

NCI-H2126
relative viability (XAV939; 0.08 µM): 1.01
relative viability (XAV939; 0.253 µM): 0.826
relative viability (XAV939; 0.8 µM): 0.822
relative viability (XAV939; 2.53 µM): 0.807
relative viability (Navitoclax; 0.005 µM): 1.04
relative viability (Navitoclax; 0.01581 µM): 1.07
relative viability (Navitoclax; 0.05 µM): 0.901
relative viability (Navitoclax; 0.1581 µM): 0.927
relative viability (Navitoclax; 0.5 µM): 0.976
relative viability (Navitoclax; 0.5 µM, anchor plate): 0.852
relative viability (C-75; 0.08 µM): 0.949
relative viability (C-75; 0.253 µM): 1.14
relative viability (C-75; 0.8 µM): 0.957
relative viability (C-75; 2.53 µM): 0.919
relative viability (C-75; 8 µM): 0.943
relative viability ([1]; 0.04 µM): 1.1
relative viability ([1]; 0.1265 µM): 1
relative viability ([1]; 0.4 µM): 0.992
relative viability ([1]; 1.265 µM): 0.923
relative viability (AZD7762; 0.01 µM): 0.972
relative viability (AZD7762; 0.03162 µM): 1.07
relative viability (AZD7762; 0.1 µM): 1.05
relative viability (AZD7762; 0.2 µM, anchor plate): 1.01
relative viability (AZD7762; 0.3162 µM): 1.02
relative viability (AZD7762; 1 µM): 1.09
